The values below come from patent US8133910B2, “Thiophene derivatives as S1P1/EDGE1 receptor agonists” (Actelion Pharmaceuticals Ltd., priority 2006, dated 2012).

Assay [1] addresses recombinant human S1P1 receptor (Homo sapiens, UniProt P21453). In words: GTPγS assay to determine EC50 values. It counts as biochemical. The note with it: 35S-GTPγS binding, membrane preparations of CHO cells expressing recombinant human S1P1 receptor, pH 7.4. The method, then:
GTPγS binding assays are performed in 96 well microtiter plates (Nunc, 442587) in a final volume of 200 μl, using membrane preparations of CHO cells expressing recombinant human S1P1 receptor. Assay conditions are 20 mM Hepes (Fluka, 54461), 100 mM NaCl (Fluka, 71378), 5 mM MgCl2 (Fluka, 63064), 0.1% BSA (Calbiochem, 126609), 1 μM GDP (Sigma, G-7127), 2.5% DMSO (Fluka, 41644), 50 pM ^35S-GTPγS (Amersham Biosciences, SJ1320). The pH is 7.4. Test compounds are dissolved and diluted in 100% DMSO and pre-incubated at room temperature for 30 min in 150 μl of the above assay buffer, in the absence of ^35S-GTPγS. After addition of 50 μl of ^35S-GTPγS, the assay is incubated for 1 h at rt. The assay is terminated by transfer of the reaction mixture to a Multiscreen plate (Millipore, MAHFC1H60) using a cell harvester from Packard Biosciences, and the plates are washed with ice-cold 10 mM Na2HPO4/NaH2PO4 (70%/30%), dried, sealed at the bottom and, after addition of 25 μl MicroScint20 (Packard Biosciences, order #6013621), sealed on the top. Membrane-bound ^35S-GTPγS is measured with a TopCount from Packard Biosciences.
EC50 is the concentration of agonist inducing 50% of the maximal specific ^35S-GTPγS binding. Specific binding is determined by subtracting non-specific binding from maximal binding. Maximal binding is the amount of cpm bound to the
Multiscreen plate in the presence of 10 μM of S1P. Non-specific binding is the amount of binding in the absence of an agonist in the assay.
A general note: GTPγS resists hydrolysis and so accumulates on activated G proteins.

For assay [2], the system named is circulating lymphocytes. In words: Assessment of in vivo efficacy: circulating lymphocytes after oral administration. The conditions noted are these: 6 h after oral administration of 10 mg/kg to normotensive male Wistar rats, as compared to vehicle group; mean±SEM. The procedure:
The efficacy of the compounds of Formula (I) is assessed by measuring the circulating lymphocytes after oral administration of 3 to 30 mg/kg of a compound of Formula (I) to normotensive male Wistar rats. The animals are housed in climate-controlled conditions with a 12 h-light/dark cycle, and have free access to normal rat chow and drinking water. Blood is collected before and 3, 6 and 24 h after drug administration. Full blood is subjected to hematology using Advia Hematology system (Bayer Diagnostics, Zürich, Switzerland).
All data are presented as mean±SEM. Statistical analyses are performed by analysis of variance (ANOVA) using Statistica (StatSoft) and the Student-Newman-Keuls procedure for multiple comparisons. The null hypothesis is rejected when p<0.05.

Broadly, the EC50 is the concentration that produces a half-maximal response.

Chain of recombinant human S1P1 receptor (P21453 whole entry): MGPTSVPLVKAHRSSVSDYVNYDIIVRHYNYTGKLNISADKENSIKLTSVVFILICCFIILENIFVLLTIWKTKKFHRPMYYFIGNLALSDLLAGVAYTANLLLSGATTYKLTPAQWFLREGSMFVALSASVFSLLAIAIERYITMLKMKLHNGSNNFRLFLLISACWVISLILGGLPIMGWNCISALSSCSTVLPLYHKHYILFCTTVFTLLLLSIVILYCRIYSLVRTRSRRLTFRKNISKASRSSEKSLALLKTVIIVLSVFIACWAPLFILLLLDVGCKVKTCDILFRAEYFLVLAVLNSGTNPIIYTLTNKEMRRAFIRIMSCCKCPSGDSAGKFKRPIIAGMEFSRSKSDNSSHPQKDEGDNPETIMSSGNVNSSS

For `Cc1cc(-c2noc(-c3ccc(CC(C)C)s3)n2)cc(C)c1OCC(O)CNC(=O)CO` (stereo not drawn) [Example 16], the EC50 in assay [1] came to 2.6 nM. Take `CCc1cc(-c2nnc(-c3ccc(CC(C)C)s3)o2)cc(C)c1OC[C@@H](O)CNC(=O)CO` [Example 37, N-((2S)-3-{2-Ethyl-6-methyl-4-[5-(5-isobutyl-thiophen-2-yl)-[1,3,4]oxadiazol-2-yl]-phenoxy}-2-hydroxy-propyl)-2-hydroxy-acetamide]: the Lymphocyte counts in assay [2] is −67 ± 3%. Consider `CCCc1ccc(-c2nc(-c3cc(C)c(OC[C@H](O)CNC(=O)CO)c(C)c3)no2)s1` [Example 17, (2R)—N-(3-{2,6-Dimethyl-4-[5-(5-propyl-thiophen-2-yl)-[1,2,4]oxadiazol-3-yl]-phenoxy}-2-hydroxy-propyl)-2-hydroxy-acetamide], for which, in assay [2], the Lymphocyte counts was −59. ± 4%. Also, in assay [1], the EC50 was 0.6 nM. Regarding `CCc1cc(-c2nnc(-c3cc(C)c(CC(C)C)s3)o2)cc(C)c1OC[C@@H](O)CNC(=O)CO` [Example 42, N-((2S)-3-{2-Ethyl-4-[5-(5-isobutyl-4-methyl-thiophen-2-yl)-[1,3,4]oxadiazol-2-yl]-6-methyl-phenoxy}-2-hydroxy-propyl)-2-hydroxy-acetamide], the EC50 in assay [1] was determined as 0.6 nM.

Take `Cc1cc(-c2nnc(-c3ccc(CC(C)C)s3)o2)cc(C)c1OC[C@@H](O)CNC(=O)CO` [Example 31, 2-hydroxy-N-((2S)-2-hydroxy-3-{4-[5-(5-isobutyl-thiophen-2-yl)-[1,3,4]oxadiazol-2-yl]-2,6-dimethyl-phenoxy}-propyl)-acetamide]: the EC50 in assay [1] amounted to 3.3 nM. Same read-out and setting: as for `Cc1cc(-c2nnc(-c3ccc(CC(C)C)s3)o2)cc(C)c1OCC(O)CNC(=O)CO` (stereo not drawn) [Example 22, 2-hydroxy-N-(2-hydroxy-3-{4-[5-(5-isobutyl-thiophen-2-yl)-[1,3,4]oxadiazol-2-yl]-2,6-dimethyl-phenoxy}-propyl)-acetamide], the figure is 2.8 nM. `CCc1cc(-c2nnc(-c3cc(C)c(CC(C)C)s3)o2)cc(C)c1OC[C@@H](O)CO` [Example 40, (2S)-3-{2-Ethyl-4-[5-(5-isobutyl-4-methyl-thiophen-2-yl)-[1,3,4]oxadiazol-2-yl]-6-methyl-phenoxy}-propane-1,2-diol]: the Lymphocyte counts in assay [2] is given as −58 ± 3%.

On to `CCCc1ccc(-c2nc(-c3cc(C)c(OC[C@@H](O)CNC(=O)CO)c(CC)c3)no2)s1` [Example 28, (2S)—N-(3-{2-Ethyl-6-methyl-4-[5-(5-propyl-thiophen-2-yl)-[1,2,4]oxadiazol-3-yl]-phenoxy}-2-hydroxy-propyl)-2-hydroxy-acetamide], for which the EC50 in assay [1] came to 2.4 nM.
